How the values were obtained:
[1] = target: human Somatostatin 4 receptor (SSTR4) (Homo sapiens (Human), UniProt P31391); assay: cAMP assay with human Somatostatin 4 receptor; type: cell-based; details: hSSTR4 expressing H4 cells, inhibition of Forskolin-stimulated cAMP; read-out: SSTR4 agonism EC50
Method: Method description for cAMP assay with human Somatostatin 4 receptor.
The activation of the SSTR4 receptor (Gi coupled) causes an inhibition of intracellular cAMP after stimulation with Forskolin, which can be quantifiable by use of a suitable assay Kit and an adequate plate reader. This technique is used to characterize pharmacological effects of the SSTR4 receptor agonists by use of hSSTR4 expressing H4 cells.
Compounds are dissolved and diluted in DMSO. The final test solution contains […]. The cAMP standard (Lance cAMP 384 Kit; PerkinElmer, Cat #AD0264) is prepared in assay buffer (HBSS with 0.1% BSA, 5 mM HEPES, […], pH 7.4) containing 1% DMSO and the cAMP standard curve is included at least on one plate. Cells are centrifuged and suspended in assay buffer (incl. 1:100 diluted Alexa antibody).
For the assay 5 μl of a cell suspension (approximately 5000 cells/well)—incl. Alexa antibody (diluted 1:100) are added into a 384 well MTP microtitre plate excepting one row or column (depending on the plate layout), which is reserved for the standard curve. Then 2 μl of compound sample is added as concentration response curve (e.g. 1e-5 M to 6e-10 M), usually in triplicates. Each assay contains incubations with vehicle controls instead of compound as controls for non-inhibited cAMP generation (100% CTL; ‘high values’) and incubations with 1 μM Somatosatin as controls for full inhibition and background (0% CTL; ‘low values’). After approximately 10-15 min incubation time 3 μl Forskolin (dissolved in DMSO, final conc. 15 μM) is added. Then the plates are shaken briefly and incubated for 60 min at room temperature. After 60 min 10 μl of the detection mix is added into all wells followed by an additional incubation period of 1 h. The plates are read in a suitable plate reader.
The analysis of the data is based on the “ratio” of the time-resolved fluorescence measurements of donor and acceptor fluorophore (Ex: 320 nm; Em1: 665 nm; Em2: 615 nm; ratio 665/615). From this ratio, cAMP concentrations are calculated from standard curve and the EC50 is estimated by least square curve fit program.

human SSTR4 = human SSTR4 (Homo sapiens (Human), UniProt P31391); assay: Radioligand binding assay, human SSTR4
Sequence of human SSTR4 (P31391 whole entry): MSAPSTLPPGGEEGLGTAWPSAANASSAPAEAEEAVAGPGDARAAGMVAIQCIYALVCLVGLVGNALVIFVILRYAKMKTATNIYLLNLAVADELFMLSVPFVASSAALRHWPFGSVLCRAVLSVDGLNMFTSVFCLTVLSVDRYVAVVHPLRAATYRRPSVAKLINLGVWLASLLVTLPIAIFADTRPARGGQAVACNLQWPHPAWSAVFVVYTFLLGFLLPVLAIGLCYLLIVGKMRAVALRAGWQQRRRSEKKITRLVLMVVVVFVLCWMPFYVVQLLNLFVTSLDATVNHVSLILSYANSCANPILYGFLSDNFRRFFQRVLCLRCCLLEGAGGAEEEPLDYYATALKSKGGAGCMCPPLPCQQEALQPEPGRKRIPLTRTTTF
Description: (§1) Radioligand Binding Assays
(§2) Method description for binding assays with human Somatostatin receptors by use of CHO cell membranes expressing recombinant human SSTR1 or human SSTR2 or human SSTR3 or human SSTR4 or human SSTR5
(§3) Receptor binding assays refer to a technique in which labeled receptor ligands are used to detect binding to a receptor. In competition experiments test compounds, which are not labeled, compete with the binding side of a labeled ligand. The displacement of the labeled ligand by the test compound leads to a decreased signal.
(§4) For the binding experiments 200 μL of membrane homogenate from one of the following protein amounts is used: hSSTR1 (40 μg/well); hSSTR2 (25 μg/well); hSSTR3 (1.5 μg/well); hSSTR4 (0.5 μg/well); hSSTR5 (25 μg/well). The homogenate is incubated with 0.05 nM of radioligand ([3-125I-Tyr]-Somatostatin-(1-14)) in addition to increasing concentrations of a test compound or vehicle (100% binding) in a total volume of 250 μL using a Hepes buffer (10 mM, EDTA 1 mM, MgCl2 5 mM, pH7.6, BSA 0.5%, Bacitracin 0.003%, DMSO 1% for 180 min at room temperature. The incubation is terminated by filtration with ice cold NaCl 0.9% through polyethyleneimine treated (0.3%) GF/B glass fiber filters using a cell harvester. The protein-bound radioactivity is measured in a suitable reader. The non-specific binding is defined as radioactivity bound in the presence of 1 μM Somatostatin-14 during the incubation period.
(§5) The analysis of the concentration-binding curves is performed by computer-assisted nonlinear least square curve fitting method using the model of one receptor binding site.

[2] = Metabolic stability in human liver microsomes; type: in vitro ADME; details: pooled human liver microsomes, 37° C., 1 μM test compound, NADPH; for half-life at 1 μM: pH 7.6, read-out: Half-life t1/2
Method: The metabolic stability of the compounds according to the invention may be investigated as follows:
The metabolic degradation of the test compound is assayed at 37° C. with pooled human liver microsomes. The final incubation volume of 100 μl per time point contains TRIS buffer pH 7.6 at room temperature (0.1 M), magnesium chloride (5 mM), microsomal protein (1 mg/mL) and the test compound at a final concentration of 1 μM. Following a short preincubation period at 37° C., the reactions are initiated by addition of beta-nicotinamide adenine dinucleotide phosphate, reduced form (NADPH, 1 mM), and terminated by transferring an aliquot into solvent after different time points. After centrifugation (10000 g, 5 min), an aliquot of the supernatant is assayed by LC-MS/MS for the amount of parent compound. The half-life is determined by the slope of the semi-logarithmic plot of the concentration-time profile.

human SSTR1 = human SSTR1 (Homo sapiens (Human), UniProt P30872); assay: Radioligand binding assay, human SSTR1
Sequence of human SSTR1 (P30872 whole entry): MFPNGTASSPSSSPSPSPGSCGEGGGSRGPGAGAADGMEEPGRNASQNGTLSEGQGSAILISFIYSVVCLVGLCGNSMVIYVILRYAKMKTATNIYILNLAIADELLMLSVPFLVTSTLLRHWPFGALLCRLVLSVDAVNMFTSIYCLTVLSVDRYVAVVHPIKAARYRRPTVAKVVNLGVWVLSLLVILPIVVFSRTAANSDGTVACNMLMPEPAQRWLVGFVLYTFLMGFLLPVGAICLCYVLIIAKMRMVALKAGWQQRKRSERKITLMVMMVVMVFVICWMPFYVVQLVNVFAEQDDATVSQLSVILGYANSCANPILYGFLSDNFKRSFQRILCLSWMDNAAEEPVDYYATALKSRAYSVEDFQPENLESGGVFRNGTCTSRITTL
Description: as §1, §2, §3, §4, §5

human SSTR2 = human SSTR2 (Homo sapiens (Human), UniProt P30874); assay: Radioligand binding assay, human SSTR2
Sequence of human SSTR2 (P30874 whole entry): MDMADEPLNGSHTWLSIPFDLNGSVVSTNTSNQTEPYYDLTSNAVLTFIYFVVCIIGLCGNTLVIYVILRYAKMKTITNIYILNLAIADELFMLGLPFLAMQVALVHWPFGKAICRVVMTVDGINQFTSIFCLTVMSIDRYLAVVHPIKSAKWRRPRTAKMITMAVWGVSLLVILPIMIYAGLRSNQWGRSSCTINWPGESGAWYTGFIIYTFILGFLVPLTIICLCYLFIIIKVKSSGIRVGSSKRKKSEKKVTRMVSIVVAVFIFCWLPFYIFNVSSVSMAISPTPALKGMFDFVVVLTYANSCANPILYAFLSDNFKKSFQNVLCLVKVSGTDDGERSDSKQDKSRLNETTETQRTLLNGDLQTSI
Description: as §1, §2, §3, §4, §5

human SSTR5 = human SSTR5 (Homo sapiens (Human), UniProt P35346); assay: Radioligand binding assay, human SSTR5
Sequence of human SSTR5 (P35346 whole entry): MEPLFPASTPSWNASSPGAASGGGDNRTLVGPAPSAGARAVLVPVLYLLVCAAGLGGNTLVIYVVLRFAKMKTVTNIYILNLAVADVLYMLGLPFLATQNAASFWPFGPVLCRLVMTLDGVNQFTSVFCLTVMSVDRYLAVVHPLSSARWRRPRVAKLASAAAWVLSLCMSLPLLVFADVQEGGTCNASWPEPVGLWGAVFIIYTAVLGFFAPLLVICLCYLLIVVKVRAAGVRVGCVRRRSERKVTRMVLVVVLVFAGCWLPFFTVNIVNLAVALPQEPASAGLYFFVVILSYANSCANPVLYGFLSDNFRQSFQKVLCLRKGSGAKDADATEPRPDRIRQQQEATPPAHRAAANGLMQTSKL
Description: as §1, §2, §3, §4, §5

human SSTR3 = human SSTR3 (Homo sapiens (Human), UniProt P32745); assay: Radioligand binding assay, human SSTR3
Sequence of human SSTR3 (P32745 whole entry): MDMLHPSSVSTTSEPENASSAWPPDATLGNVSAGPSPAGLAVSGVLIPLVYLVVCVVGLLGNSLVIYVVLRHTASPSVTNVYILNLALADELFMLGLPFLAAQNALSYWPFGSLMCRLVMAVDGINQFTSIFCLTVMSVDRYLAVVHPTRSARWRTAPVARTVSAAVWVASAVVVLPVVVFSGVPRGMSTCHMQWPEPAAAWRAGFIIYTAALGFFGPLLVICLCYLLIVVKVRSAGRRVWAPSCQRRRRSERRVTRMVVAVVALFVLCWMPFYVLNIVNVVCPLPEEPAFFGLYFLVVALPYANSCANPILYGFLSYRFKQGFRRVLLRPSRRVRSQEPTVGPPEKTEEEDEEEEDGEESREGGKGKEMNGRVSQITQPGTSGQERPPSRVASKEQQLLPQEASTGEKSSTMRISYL
Description: as §1, §2, §3, §4, §5

Sequence of human Somatostatin 4 receptor (SSTR4) (P31391 whole entry): as the sequence (P31391 whole entry) above

EC50 [1] [µM]	Ki (human SSTR4) [µM]	half-life at 1 μM [2] [h]	Ki (human SSTR1) [µM]	Ki (human SSTR2) [µM]	Ki (human SSTR5) [µM]	Ki (human SSTR3) [µM]	Half-life t1/2 [2] [h]	SMILES
0.0104		> 2.17						Cc1cccn2c(C(C)(C)NC(=O)c3nccc4c3OCCNC4)nc(C)c12 [Example 75]
0.004		0.533						Cc1cccn2c(C(C)(C)NC(=O)c3cccc4c3OCCNC4)nc(C3CC3)c12 [Example 62]
0.0223		> 2.17						Cc1nc(C(C)(C)NC(=O)c2cccc3c2OCCNC3)c2ccccc2n1 [Example 64]
0.0017		1.42						CC(C)(NC(=O)c1cccc2c1OCCNC2)c1ncc2c(Cl)cccn12 [Example 48]
0.0158	0.532	> 2.17	9.45	9.6	9.75	8.62		Cc1cccc2c(C(C)(C)NC(=O)c3cncc4c3OCCNC4)nn(C)c12 [Example 42]
0.0183		> 2.17						Cc1cccc2c(C(C)(C)NC(=O)c3ccnc4c3OCCNC4)nn(C)c12 [Example 41]
0.0025	0.065	> 2.17	9.45	9.6	9.75	8.62		Cc1nnc(C(C)(C)NC(=O)c2cccc3c2OCCNC3)c2ccccc12 [Example 26]
0.0021	0.0291	0.85	9.01	9.63	9.86	8.71		Cn1nc(C(C)(C)NC(=O)c2cccc3c2OCCNC3)c2cccc(F)c21 [Example 39]
0.0084	0.104		9.01	9.63	9.86	8.71	2.17	CC(C)(NC(=O)c1cccc2c1OCCNC2)c1ccnc2ccccc12 [Example 6]

More lines, now with the values behind:

SMILES	EC50 [1] [µM]	Ki (human SSTR4) [µM]	half-life at 1 μM [2] [h]	Ki (human SSTR1) [µM]	Ki (human SSTR2) [µM]	Ki (human SSTR5) [µM]	Ki (human SSTR3) [µM]	Half-life t1/2 [2] [h]
Cc1cccc2c(C(C)(C)NC(=O)c3cccc4c3OCCNC4)n[nH]c12 [Example 33]	0.0008	0.0217	1.65	9.45	9.6	9.75	8.62	
Cn1nc(C(C)(C)NC(=O)c2nccc3c2OCCNC3)c2ccccc21 [Example 19]	0.0146	0.613		9.45	9.6	9.75	8.62	2.17
Cc1cccn2c(C(C)(C)NC(=O)c3cccc4c3OCCNC4)ncc12 [Example 47]	0.002	0.0532	> 2.17	9.01	9.63	9.86	8.71	
Cc1ncc(C(C)(C)NC(=O)c2cccc3c2OCCNC3)c2ccccc12 [Example 27]	0.0006		> 2.17					
CC(C)(NC(=O)c1cccc2c1OCCNC2)c1ccc(Cl)c(Cl)c1.Cl [Example 8]	0.0223		0.0733					
CC(C)(NC(=O)c1cccc2c1OCCNC2)c1cccc2ccccc12 [Example 7]	0.0014		0.533					
Cn1nc(C(C)(C)NC(=O)c2cccc3c2OCCNC3)c2ccccc21 [Example 18]	0.0044	0.0395	1.22	7.82	9.63	9.86	8.71	
Cc1cccn2c(C(C)(C)NC(=O)c3nccc4c3OCCNC4)ncc12 [Example 72]	0.0136		> 2.17					
Cc1cccn2c(C(C)(C)NC(=O)c3cccc4c3OCCNC4)nc(C)c12.Cl [Example 53]	0.0016		1.2					
Cn1nc(C(C)(C)NC(=O)c2ccnc3c2OCCNC3)c2ccccc21 [Example 20]	0.0175	0.574	> 2.17	9.45	9.6	9.75	8.62	
Cc1cc2ccccc2c(C(C)(C)NC(=O)c2cccc3c2OCCNC3)n1 [Example 28]	0.0042		0.5					

Reference: patent publication US10183940B2, “Aryl and heteroaryl-fused tetrahydro-1,4-oxazepine amides as somatostatin receptor subtype 4 (SSTR4) agonists” (Boehringer Ingelheim International GmbH, priority 2014, dated 2019)
